How the values were obtained:
Sprague dawley rats [1] = test: Hyperinsulinemic euglycemic clamps of dexamethasone treated rats; type: in vivo, rat; conditions: plasma, 60 minute steady state, mean ± standard error, n=4
[2] = tested on: Zucker Diabetic Fatty (ZDF) rats; test: Myriocin treatment of Zucker Diabetic Fatty rats; type: in vivo, rat
soleus muscles = test: Isolated soleus muscle strips incubated with free fatty acids; conditions: cycloserine 1 mM or myriocin 10 μM
Zucker fa/fa rat = test: Myriocin in non-diabetic insulin resistance model, Zucker fa/fa rat; type: in vivo
male Sprague Dawley Rats = test: Insulin tolerance test in dexamethasone-treated rats; type: in vivo, rat; conditions: dexamethasone 400 μg/kg IP 24 and 12 hours prior; myriocin 0.3 mg/kg/2 days for 1 week
Procedure: Following an overnight fast, insulin was injected (20 U, IP) and whole blood glucose was determined by glucometer. Values are presented as the ratio of measured blood glucose to fasting blood glucose.
(§1) To definitively evaluate effects on insulin sensitivity, as well as to distinguish whether the treatment protocols differentially affected glucose uptake in skeletal muscle or hepatic output by the liver, hyperinsulinemic-euglycemic clamps with D-[U-^14C] glucose and 2-deoxy-D-[2,6-^3H] glucose tracers were performed.

Sprague dawley rats [3] = test: Hyperinsulinemic euglycemic clamps of dexamethasone treated rats; type: in vivo, rat; conditions: for Insulin, During Clamp / FFA / Glucose, Before Clamp / Insulin, Before Clamp: plasma, mean ± standard error, n=4; for Insulin, During Clamp: steady state; for FFA: Before Clamp by layout
Procedure: (§2) (A) Sprague-Dawley rats were treated with myriocin (300 μg/Kg, IP, solid bars) or saline (open bars) for two weeks prior to giving administering dexamethasone (40 μg/Kg, IP) or vehicle (5% ethanol) every 12 hours for 36 hours. Animals were euthanized by CO2 inhalation, livers were removed, and ceramide levels were assessed as described in SOM-Methods. Shown are mean ceramide levels+/−S.E.M, n=6 per group. The asterisk denotes that the sample was statistically different from vehicle-treated controls, p<0.05, student's t-test. (B) Livers were obtained as in A, above, and protein and mRNA were extracted as described in SOM-Methods. Levels of transcripts (solid bars) encoding serine palimitoyl transferase isoforms 1 and 2 (SPT1 and SPT2), dihydroceramide synthases (DCS) TL1, UOG, and TRH3, glucosylceramide synthase (GCS), and acid ceramidase (AC) transcripts were obtained by reverse-transcriptase polymerase chain reaction, normalized to β-actin. SPT2 protein levels (white bars) were detected by immunoblotting with an antibody from Cayman Chemicals (Ann Arbor, Mich.) and quantified on a Kodak Image Station 2000R (Rochester, N.Y.). Data represent the fold-change in transcript or protein in dexamethasone-treated animals relative to vehicle controls. […] (C and D) Rats were challenged with glucose (1 g/kg) given intraperitoneally (IP) following treatment with dexamethasone (squares), ethanol carrier (triangles), myriocin (open shapes), or saline (solid shapes) as in A, above. Tail vein blood (3 μl) was sampled for glucose (C)(using the Glucometer Elite from Bayer Corp., Tarrytown, N.Y.) or insulin (D) (using an Elisa kit from Linco Diagnostics, Springfield, Mo.). […] (E-G) Hyperinsulinemic euglycemic clamps were performed on animals (n=4 per group) treated as in A, above, as described in SOM-Methods. Data from animals receiving myriocin are depicted in solid bars. (E) The glucose infusion rate required to maintain normal glycemia during insulin infusion ([…]) was calculated as the average infusion rate during the 60 minute steady state. (F) Hepatic glucose output was estimated by the disappearance of [^14C] glucose from a bolus dose given during the steady state minus the glucose infusion rate. (G) Disappearance of a bolus dose of [^3H] 2-deoxyglucose from the bloodstream was used to estimate the rate of whole body glucose uptake.
as §1
Clamps were performed in conscious unrestrained animals using swivels and tethers (Instech, Plymouth Meeting, Pa.) to allow uninterrupted movement of the animal without disruption of infusion lines. Hyperinsulinemia was initiated by intravenous infusion of insulin (10 mU/kg/min at a flow rate of 4 μL/min). Blood was sampled from arterial lines in 7 minute intervals and analyzed with a Beckman Glucose analyzer II (Beckman Coulter, Fullerton, Calif.). Euglycemia was maintained by variable infusion of 20% dextrose. Steady state was achieved approximately 90 minutes after initiating hyperinsulinemia and maintained for 30 minutes. Glucose infusion rates were calculated as the average glucose infusion rate during the 30 minute steady state. Additional blood samples were taken before initiating hyperinsulinemia and at the end of the clamp for analysis of insulin and free fatty acids.

DIO mice = test: Myriocin in non-diabetic insulin resistance model, DIO mice; type: in vivo
Sprague-Dawley rats [4] = test: Glucose tolerance test (glucose 1 g/kg IP) in dexamethasone-treated rats; type: in vivo, rat
Procedure: as §2
Tail vein blood (3 μl) was sampled for glucose determination (Hitachi 911 clinical chemistry analyzer, Roche, Indianapolis, Ind. or Glucometer Elite, Bayer Corp., Tarrytown, N.Y.)-30 minutes, immediately before and 15, 30, 45, 60, 90, and 120 min after glucose administration. Additionally, serum was collected and analyzed for insulin by Elisa (Linco Diagnostics, Springfield, Mo.).

Sprague-Dawley rats [5] = test: Liver ceramide and ceramide-enzyme expression in dexamethasone-treated rats; type: in vivo, rat; conditions: dexamethasone 40 μg/Kg IP every 12 hours for 36 hours; myriocin 300 μg/Kg IP for two weeks prior
Procedure: (A) Sprague-Dawley rats were treated with myriocin (300 μg/Kg, IP, solid bars) or saline (open bars) for two weeks prior to giving administering dexamethasone (40 μg/Kg, IP) or vehicle (5% ethanol) every 12 hours for 36 hours. Animals were euthanized by CO2 inhalation, livers were removed, and ceramide levels were assessed as described in SOM-Methods. Shown are mean ceramide levels+/−S.E.M, n=6 per group. The asterisk denotes that the sample was statistically different from vehicle-treated controls, p<0.05, student's t-test. (B) Livers were obtained as in A, above, and protein and mRNA were extracted as described in SOM-Methods. Levels of transcripts (solid bars) encoding serine palimitoyl transferase isoforms 1 and 2 (SPT1 and SPT2), dihydroceramide synthases (DCS) TL1, UOG, and TRH3, glucosylceramide synthase (GCS), and acid ceramidase (AC) transcripts were obtained by reverse-transcriptase polymerase chain reaction, normalized to β-actin. SPT2 protein levels (white bars) were detected by immunoblotting with an antibody from Cayman Chemicals (Ann Arbor, Mich.) and quantified on a Kodak Image Station 2000R (Rochester, N.Y.). […] (E) The glucose infusion rate required to maintain normal glycemia during insulin infusion (4mU/kg/min) was calculated as the average infusion rate during the 60 minute steady state. […]

[6] = Dexamethasone-treated (Saline or Myriocin)
[7] = treatment starting at week 8, vs vehicle
[8] = clamp, dexamethasone with or without myriocin pretreatment
[9] = dexamethasone with or without myriocin pretreatment
[10] = glucose challenge 1 g/kg IP, n=6 per group, p<0.05

Structure (SMILES): CCCCCCC(=O)CCCCCC/C=C/C[C@@H](O)[C@H](O)[C@@](N)(CO)C(=O)O [Myriocin]
- Glucose, During Clamp (Sprague dawley rats [1]; [6]): 129.3 ± 3.7 mg/dL
- Glucose, During Clamp (Sprague dawley rats [1]; Dexamethasone: Control): 130.5 ± 2.9 mg/dL
- age until which the improvement in blood glucose persisted ([2]; ZDF rats): at least 16 weeks
- ceramides in liver, soleus and serum ([2]; ZDF rats): reduced levels of the sphingolipid in all these tissues
- tolerability ([2]; ZDF rats and lean controls, myriocin for up to 6 weeks): well-tolerated
- glucose homeostasis ([2]; male ZDF rats, myriocin 0.3 mg/kg IP every other day (FIG. 4 legend)): markedly improved glucose homeostasis
- side effects ([2]; rat, in vivo): no apparent side effects
- onset of diabetes ([2]; treatment starting at week 8): prevented the onset of diabetes
- plasma glucose levels [2, 7]: reduced
- triglyceride levels [2, 7]: reduced
- linoleate effects on 2-DOG uptake (soleus muscles; 1 mM linoleate): did not alter linoleate effects
- linoleate effects on DAG accumulation (soleus muscles; 1 mM linoleate): did not alter linoleate effects
- DAG in palmitate-treated muscles (soleus muscles; 1 mM palmitate): without affecting DAG
- palmitate effect on insulin-stimulated 2-deoxyglucose uptake (soleus muscles; 1 mM palmitate): completely negated the antagonistic effects of palmitate
- palmitate-induced ceramide accumulation (soleus muscles; 1 mM palmitate): prevented palmitate-induced ceramide accumulation
- glucose homeostasis (Zucker fa/fa rat): improved glucose homeostasis
- insulin levels (Zucker fa/fa rat): lowered insulin levels
- insulin sensitivity in insulin tolerance tests (male Sprague Dawley Rats): fully negated
- 2-deoxyglucose uptake into skeletal muscle / insulin resistance in skeletal muscle (Sprague dawley rats [3]; [8]): partially blocked
- insulin-induced suppression of hepatic glucose output (Sprague dawley rats [3]; [8]): completely prevented
- insulin-responsiveness (glucose infusion rate, hepatic glucose output, whole body glucose uptake; FIG. 1E-G) (Sprague dawley rats [3]; clamp, n=4 per group, p<0.05): significantly restored insulin-responsiveness
- Insulin, During Clamp (Sprague dawley rats [3]; [6]): 5.4 ± 1.4 ng/mL
- Insulin, During Clamp (Sprague dawley rats [3]; Dexamethasone: Control): 6.4 ± 0.5 ng/mL
- FFA (Sprague dawley rats [3]; [6]): 176 ± 34 µM
- FFA (Sprague dawley rats [3]; Dexamethasone: Control): 258 ± 29 µM
- Glucose, Before Clamp (Sprague dawley rats [3]; [6]): 137.0 ± 2.1 mg/dL
- Insulin, Before Clamp (Sprague dawley rats [3]; [6]): 2.34 ± 0.49 ng/mL
- Glucose, Before Clamp (Sprague dawley rats [3]; Dexamethasone: Control): 123.6 ± 7.7 mg/dL
- Insulin, Before Clamp (Sprague dawley rats [3]; Dexamethasone: Control): 2.05 ± 0.25 ng/mL
- glucose homeostasis (DIO mice): improved glucose homeostasis
- insulin levels (DIO mice): lowered insulin levels
- glucose disposal / glucose intolerance in glucose tolerance test (Sprague-Dawley rats [4]; [9]): significantly negated glucocorticoid-induced glucose intolerance
- insulin levels during glucose tolerance test (Sprague-Dawley rats [4]; [9]): normalized circulating insulin concentrations
- area under the curve, glucose (Sprague-Dawley rats [4]; [10]): significantly lowered the area under the curve
- area under the curve, insulin (Sprague-Dawley rats [4]; [10]): significantly lowered the area under the curve
- ceramide levels in the liver (Sprague-Dawley rats [5]): Reducing ceramide levels

Source: US20100048714A1, “Methods and Compositions Related to Inhibition of Ceramide Synthesis” (University of Utah Research Foundation, priority 2006, published 2010)
